Measurements published in paper PMC3433650 (Journal of neurochemistry, 2012).

Tested on: rat and human α9α10 nAChRs
Assay: ACh-evoked currents in Xenopus oocytes expressing rat or human α9α10 nAChRs
Assay type: cell-based
Details: 100 µM ACh

## CC(=O)OCC[N+](C)(C)C [ACh, Acetylcholine chloride]
  ACh-evoked current, rat vs human α9α10 (in words): generally evoked larger currents in Xenopus oocytes expressing rat α9α10 nAChRs than in oocytes expressing human α9α10 nAChRs
